The record followed here is ChEMBL document CHEMBL1201862, “PubChem BioAssay data set” (2004).

Test systems include A549; ACHN; CAKI-1; HOP-62; HT-29; MCF7; MDA-MB-231; MDA-MB-435; NCI-H23; NCI-H522; NCI/ADR-RES; OVCAR-8; SF-295; SF-539; SK-MEL-28; SK-MEL-2; SK-OV-3; SNB-19; SNB-75; T47D.
Common to all, as to assay: inhibition of tumour cell growth, NCI panel, 48 h

Structures are written as SMILES.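 1) Cells in 96-well plates. 2) Compound, 48 h, 5 concentrations. 3) Linear interpolation between surrounding doses. 4) Unreached endpoint = highest concentration. GI50 marks 50% less growth.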 Activity calls are given as the source filed them. No stated cut-off is given here; in the data, active = GI50 up to about 1.1 µM and inactive = higher. *1 amine or outer side, *2 acyl side, *3 side chain or, on linkers, in order; H or OH if unused. Where a SMILES comes first, the peptide text is derived from it. [ ]: non-standard residue; d: D form. The star is where a group is joined. ξ: configuration not given here. X43 = CCC(=O)CC(O)CC(C)CC(N[*:1])C(=O)[*:2]; ξLeu(3ξ-OH) = CC(C)C(O)C(N)C(=O)O; ξPro(4ξ-Me) = CC1CNC(C(=O)O)C1; X42 = CCC(C)/C=C/C(=O)*; Aib = CC(C)(N)C(=O)O; X44 = CC(CN(C)C)N*; βAla = NCCC(=O)O

With `O=C(O)CCN1C(=S)CSC1=S`, the GI50 in the test on A549 is > 100 µM (inactive); in the test with ACHN, > 100 µM (inactive); with CAKI-1, > 100 µM (inactive); in the test with HOP-62, > 100 µM (inactive); in the test with HT-29, > 100 µM (inactive); with MCF7 it was 67.5 µM (inactive). The GI50 is > 100 µM (inactive) in the test with MDA-MB-231; > 100 µM (inactive) in the test on MDA-MB-435; > 100 µM (inactive) in the test on NCI-H23; 67.8 µM (inactive) in the test on NCI-H522; > 100 µM (inactive) with NCI/ADR-RES; > 100 µM (inactive) with OVCAR-8. For the same molecule, the GI50 in the test on SF-295, with SF-539, in the test with SK-MEL-28, with SK-MEL-2, in the test with SK-OV-3 and with SNB-19 was > 100 µM (inactive) in each case. In addition, the GI50 with SNB-75 and in the test on T47D was > 100 µM (inactive) throughout.

As to `COc1cccc(C2c3cc4c(cc3OC(N3CCCCC3)C2C)OCO4)c1O` (stereo not given), the GI50 in the test on A549 was 6.52 µM (inactive); with ACHN it was 6.55 µM (inactive); in the test on CAKI-1, 5.48 µM (inactive); in the test on HOP-62, 4.11 µM (inactive); with HT-29, 3.43 µM (inactive); with MCF7, 5.6 µM (inactive). Further, the GI50 was 11.2 µM (inactive) in the test on MDA-MB-231; 1.75 µM (inactive) in the test on MDA-MB-435; 7.31 µM (inactive) in the test with NCI-H23; 2.74 µM (inactive) with NCI-H522; 5.12 µM (inactive) in the test on NCI/ADR-RES; 5.9 µM (inactive) with OVCAR-8. The GI50 was 4.26 µM (inactive) in the test on SF-295; 2.22 µM (inactive) with SF-539; 6.27 µM (inactive) in the test with SK-MEL-28; 9.16 µM (inactive) in the test on SK-MEL-2; 6.79 µM (inactive) in the test on SK-OV-3; 7.93 µM (inactive) in the test on SNB-19. The GI50 is 5.41 µM (inactive) with SNB-75 and 8.38 µM (inactive) in the test with T47D.

With `CCC(=O)CC(O)CC(C)CC(NC(=O)C1CC(C)CN1C(=O)/C=C/C(C)CC)C(=O)NC(C(=O)NC(C)(C)C(=O)NC(CC(C)C)C(=O)NC(CC(C)C)C(=O)NC(C)(C)C(=O)NC(C)(C)C(=O)NCCC(=O)NC(C)CN(C)C)C(O)C(C)C` (stereo not given) (X42-[ξPro(4ξ-Me)][X43][ξLeu(3ξ-OH)][Aib]LL[Aib][Aib][βAla]-X44; configuration not given here), the GI50 with A549 was < 0.005 µM (active); in the test with ACHN, 0.611 µM (active); in the test with CAKI-1 it was 1.19 µM (inactive); in the test on HOP-62, 0.151 µM (active); with HT-29, 0.0728 µM (active); with MCF7 it was < 0.005 µM (active). Further, the GI50 with MDA-MB-231 is 0.133 µM (active); in the test with MDA-MB-435 it was 0.0745 µM (active); in the test on NCI-H23 it was < 0.005 µM (active); with NCI-H522 it was < 0.005 µM (active); with NCI/ADR-RES, 7.08 µM (inactive); in the test on OVCAR-8 it was < 0.005 µM (active). Also, the GI50 with SF-295 was 0.0255 µM (active); in the test with SF-539 it was 0.292 µM (active); with SK-MEL-28 it was 0.362 µM (active); with SK-MEL-2, 0.12 µM (active); in the test with SK-OV-3, 0.341 µM (active); in the test on SNB-19, 0.0115 µM (active). The results for the GI50 in the test with SNB-75 and with T47D were 0.0165 µM (active) and < 0.005 µM (active), respectively.

Consider `COC1(OC)C[C@H](C)[C@@]23O[C@]24C2=CC(=O)C=CC2=N[C@H]3C#C/C=C\C#C[C@]14O`, for which the GI50 in the test with A549 was 0.71 µM (active); in the test on ACHN, 0.259 µM (active); in the test on CAKI-1 it was 0.284 µM (active); in the test on HOP-62, 0.787 µM (active); with HT-29 it was 0.266 µM (active); in the test with MCF7 it was 0.276 µM (active). The GI50 was 0.621 µM (active) with MDA-MB-231; 0.546 µM (active) with MDA-MB-435; 0.411 µM (active) in the test on NCI-H23; 0.0469 µM (active) with NCI-H522; 1.59 µM (inactive) in the test with NCI/ADR-RES; 0.659 µM (active) in the test on OVCAR-8. Besides, the GI50 in the test on SF-295 was 1.64 µM (inactive); in the test on SF-539 it was 0.634 µM (active); in the test with SK-MEL-28 it was 1.08 µM (active); in the test with SK-MEL-2, 1.66 µM (inactive); in the test with SK-OV-3, 1.36 µM (inactive); in the test with SNB-19, 1.55 µM (inactive). The GI50 was 0.133 µM (active) in the test on SNB-75 and 0.427 µM (active) with T47D.

With `CC(C)(CO[C@H]1C[C@H]2CC[C@@]1(C)C2(C)C)[N+](=O)[O-]`, the GI50 was 25.5 µM (inactive) in the test on A549; 33.6 µM (inactive) with ACHN; 20 µM (inactive) in the test with CAKI-1; 19.5 µM (inactive) with HOP-62; 13 µM (inactive) in the test on HT-29; 22.9 µM (inactive) in the test on MCF7. Besides, the GI50 in the test with MDA-MB-231 is 18.1 µM (inactive); with MDA-MB-435 it was 18.8 µM (inactive); in the test on NCI-H23, 25.9 µM (inactive); with NCI-H522 it was 20.4 µM (inactive); in the test with NCI/ADR-RES, 27.9 µM (inactive); with OVCAR-8 it was 22.6 µM (inactive). For the same molecule, the GI50 in the test on SF-295 is 18.6 µM (inactive); with SF-539, 16.4 µM (inactive); with SK-MEL-28 it was 18.5 µM (inactive); in the test on SK-MEL-2 it was 16.6 µM (inactive); with SK-OV-3, 29.1 µM (inactive); with SNB-19 it was 14.1 µM (inactive). Besides, the GI50 in the test with SNB-75 is 19.4 µM (inactive); in the test with T47D, 19.6 µM (inactive).

Turning to `O=S(=O)(O)C(CO)c1ccccc1.O=S(=O)(O)Cc1ccccc1` (stereo not given), the GI50 with A549, in the test on ACHN, with CAKI-1, in the test with HOP-62, in the test on HT-29 and with MCF7 was > 100 µM (inactive) each time. The GI50 with MDA-MB-231, in the test with MDA-MB-435, in the test on NCI-H23, with NCI-H522, with NCI/ADR-RES and in the test on OVCAR-8 was > 100 µM (inactive) throughout. In addition, the GI50 in the test with SF-295, in the test on SF-539, with SK-MEL-28, in the test on SK-MEL-2, with SK-OV-3 and with SNB-19 was > 100 µM (inactive) throughout. Besides, the GI50 with SNB-75 and with T47D was > 100 µM (inactive) throughout.

For the molecule `COc1ccc(CCN2C(=O)C=CC2=O)cc1OC`, the GI50 in the test with A549 was 23 µM (inactive); with ACHN, 1.77 µM (inactive); in the test with CAKI-1, 13.3 µM (inactive); in the test on HOP-62, 22.5 µM (inactive); with HT-29, 6.31 µM (inactive); in the test with MCF7, 17.3 µM (inactive). Besides, the GI50 in the test on MDA-MB-231 was 14.1 µM (inactive); in the test with MDA-MB-435 it was 17.5 µM (inactive); with NCI-H23 it was 22 µM (inactive); with NCI-H522 it was 1.52 µM (inactive); in the test with NCI/ADR-RES it was 25.4 µM (inactive); in the test on OVCAR-8 it was 19.8 µM (inactive). The GI50 with SF-295 is 17.7 µM (inactive); with SF-539, 17.3 µM (inactive); in the test on SK-MEL-28 it was 16.4 µM (inactive); with SK-MEL-2 it was 5.2 µM (inactive); with SK-OV-3 it was 18.8 µM (inactive); in the test with SNB-19 it was 19.5 µM (inactive). The GI50 is 20.5 µM (inactive) in the test with SNB-75 and 7.16 µM (inactive) in the test with T47D.
